Read-outs that look alike come from different tables or passages of the source.
How the values were obtained:
[1] = Pharmacokinetics after intravenous and oral administration in rats; format: in vivo; conditions: for F: oral bioavailability, oral dose not given; for AUC(0-t) / half-life / Vd: rat, plasma; for clearance (CL) after iv dosing / AUC(0-t) / half-life / Vd: iv dosing; for Vd: read-out: Vss
Method: The compounds disclosed herein are assessed in pharmacokinetic studies in mice, rats, dogs or monkeys. The compounds are administered as a water solution, 2% HPMC+1% TWEEN®80 in water solution, 5% DMSO+5% solutol in saline, 4% MC suspension or capsule. For the intravenous administration, the animals are generally given at 1 or 2 mg/kg dose. For the oral (p.o.) dosing, mice and rats are generally given 5 or 10 mg/kg dose, and dogs and monkeys are generally given 10 mg/kg dose. The blood samples (0.3 mL) are drawn at 0.25, 0.5, 1.0, 2.0, 3.0, 4.0, 6.0, 8.0, 12 and 24 h time points or 0.083, 0.25, 0.5, 1.0, 2.0, 4.0, 6.0, 8.0 and 24 h time points and centrifuged at 3,000 or 4000 rpm for 2 to 10 min. The plasma solutions are collected, stored at −20° C. or −70° C. until analyzed by LC/MS/MS as described above.

U87MG glioblastoma cells = assay: U87MG tumor xenograft model, tumor growth inhibition; format: in vivo, athymic nude mice (BALB/cA nu/nu); conditions: mice, oral gavage
Method: The efficacy of compounds disclosed herein was evaluated in a standard murine model of tumorigenesis. Human tumor cells (U87MG glioblastoma cells from ATCC) were expended in culture, harvested, and injected subcutaneously onto the rear flank of 6-7 week old female athymic nude mice (BALB/cA nu/nu, Hunan SLAC Laboratory Animal, Co.) (n=6-10 for vehicle group and for each dosing group). When tumors reached a volume of 100-250 mm^3, animals were randomly divided into vehicle control (for example, 5% DMSO+70% Captisol® (30%), 7% HCl (pH1), 18% Captisol® (30%); or 7% DMSO, 7% HCl (pH1), 70% Captisol® (30%), 16% Captisol® (30%), or the like) and compound groups. Subsequent administration of compound by oral gavage begins anywhere from day 0 to day 15 post tumor cell challenge and generally continues with once a day for the duration of the experiment.
Progression of tumor growth is assessed by tumor volumes and recorded as a function of time. The long (L) and short (W) axes of the subcutaneous tumors were measured with calipers twice weekly, and the tumor volume (TV) calculated as (L×W^2)/2). TGI was calculated from the difference between the median tumor volumes of vehicle-treated and drug-treated mice, expressed as a percentage of the median tumor volume of the vehicle-treated control group, by the following relation:
[formula] Initial statistical analysis is done by repeated measures analysis of variance (RMANOVA), followed by Scheffe psot hoc testing for multiple comparisons. Vehicle alone (5% DMSO+70% Captisol® (30%), 7% HCl (pH1), 18% Captisol® (30%); or 7% DMSO, 7% HCl (pH1), 70% Captisol® (30%), 16% Captisol® (30%), or the like) is the negative control.

c-Met (h) = target: T1, c-Met (h) (Homo sapiens, UniProt P08581); assay: KINOMEscan competition binding assay, c-Met (h)
T1 construct: host or cells: E. coli BL21-derived host (T7 phage) or HEK-293
T1 sequence (P08581 25-1390): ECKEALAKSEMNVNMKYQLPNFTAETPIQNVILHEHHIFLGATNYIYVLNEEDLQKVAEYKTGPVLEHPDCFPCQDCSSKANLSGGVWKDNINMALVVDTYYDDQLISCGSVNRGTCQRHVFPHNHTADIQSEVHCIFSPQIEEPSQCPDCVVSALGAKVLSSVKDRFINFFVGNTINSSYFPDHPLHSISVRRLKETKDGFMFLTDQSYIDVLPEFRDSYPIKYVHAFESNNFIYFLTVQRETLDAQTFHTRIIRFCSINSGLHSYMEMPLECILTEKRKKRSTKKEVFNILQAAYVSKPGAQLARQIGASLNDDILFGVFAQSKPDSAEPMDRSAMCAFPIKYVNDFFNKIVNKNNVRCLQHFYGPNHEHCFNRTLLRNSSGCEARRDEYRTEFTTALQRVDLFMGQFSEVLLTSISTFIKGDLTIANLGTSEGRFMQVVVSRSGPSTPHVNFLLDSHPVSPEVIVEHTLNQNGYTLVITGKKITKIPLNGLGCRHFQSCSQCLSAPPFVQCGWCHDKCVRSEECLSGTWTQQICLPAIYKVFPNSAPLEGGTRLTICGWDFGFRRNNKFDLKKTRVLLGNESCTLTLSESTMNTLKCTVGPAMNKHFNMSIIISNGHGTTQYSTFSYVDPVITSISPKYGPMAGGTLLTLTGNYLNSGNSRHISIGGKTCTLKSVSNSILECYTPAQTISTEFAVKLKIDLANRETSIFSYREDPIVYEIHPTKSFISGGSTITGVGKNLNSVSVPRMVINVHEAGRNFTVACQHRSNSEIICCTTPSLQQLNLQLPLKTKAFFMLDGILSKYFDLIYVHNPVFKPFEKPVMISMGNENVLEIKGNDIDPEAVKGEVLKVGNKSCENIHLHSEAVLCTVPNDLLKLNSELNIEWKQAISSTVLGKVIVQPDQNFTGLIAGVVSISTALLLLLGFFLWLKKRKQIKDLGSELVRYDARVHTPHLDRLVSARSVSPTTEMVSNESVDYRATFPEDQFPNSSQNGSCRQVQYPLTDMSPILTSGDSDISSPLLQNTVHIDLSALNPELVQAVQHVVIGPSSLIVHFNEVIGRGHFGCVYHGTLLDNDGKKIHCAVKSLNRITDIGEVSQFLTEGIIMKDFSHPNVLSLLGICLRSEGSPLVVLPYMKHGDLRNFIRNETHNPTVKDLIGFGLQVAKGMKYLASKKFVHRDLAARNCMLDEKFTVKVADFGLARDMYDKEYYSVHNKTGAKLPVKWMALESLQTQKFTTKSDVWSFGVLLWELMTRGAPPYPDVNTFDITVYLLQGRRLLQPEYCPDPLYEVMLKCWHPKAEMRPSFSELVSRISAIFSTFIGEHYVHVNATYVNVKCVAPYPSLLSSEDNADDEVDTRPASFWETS
Method: (§1) Alternatively, the kinase activities of the compounds can be measured using KINOMEscan™, which is based on a competition binding assay that quantitatively measures the ability of a compound to compete with an immobilized, active-site directed ligand. The assay was performed by combining three components: DNA-tagged kinase; immobilized ligand; and a test compound. The ability of the test compound to compete with the immobilized ligand was measured via quantitative PCR of the DNA tag.
(§2) For most assays, kinase-tagged T7 phage strains were prepared in an E. coli host derived from the BL21 strain. E. coli were grown to log-phase and infected with T7 phage and incubated with shaking at 32° C. until lysis. The lysates were centrifuged and filtered to remove cell debris. The remaining kinases were produced in HEK-293 cells and subsequently tagged with DNA for qPCR detection. Streptavidin-coated magnetic beads were treated with biotinylated small molecule ligands for 30 minutes at room temperature to generate affinity resins for kinase assays. The liganded beads were blocked with excess biotin and washed with blocking buffer (SEABLOCK™ (Pierce), 1% BSA, 0.05% TWEEN®20, 1 mM DTT) to remove unbound ligand and to reduce nonspecific binding. Binding reactions were assembled by combining kinases, liganded affinity beads, and test compounds in 1× binding buffer (20% SEABLOCK™, 0.17×PBS, 0.05% TWEEN®20, 6 mM DTT). All reactions were performed in polystyrene 96-well plates in a final volume of 0.135 mL. The assay plates were incubated at room temperature with shaking for 1 hour and the affinity beads were washed with wash buffer (1×PBS, 0.05% TWEEN®20). The beads were then re-suspended in elution buffer (1×PBS, 0.05% TWEEN®20, 0.5 μM non-biotinylated affinity ligand) and incubated at room temperature with shaking for 30 minutes. The kinase concentration in the eluates was measured by qPCR.
(§3) The kinase assays described herein were performed using KINOMEscan™ Profiling Service at DiscoveRx Corporation, 42501 Albrae St. Fremont, Calif.

KDR (h) = target: T2, KDR (h) (Homo sapiens, UniProt P35968); assay: KINOMEscan competition binding assay, KDR (h)
T2 construct: host or cells: E. coli BL21-derived host (T7 phage) or HEK-293
T2 sequence (P35968 20-1356): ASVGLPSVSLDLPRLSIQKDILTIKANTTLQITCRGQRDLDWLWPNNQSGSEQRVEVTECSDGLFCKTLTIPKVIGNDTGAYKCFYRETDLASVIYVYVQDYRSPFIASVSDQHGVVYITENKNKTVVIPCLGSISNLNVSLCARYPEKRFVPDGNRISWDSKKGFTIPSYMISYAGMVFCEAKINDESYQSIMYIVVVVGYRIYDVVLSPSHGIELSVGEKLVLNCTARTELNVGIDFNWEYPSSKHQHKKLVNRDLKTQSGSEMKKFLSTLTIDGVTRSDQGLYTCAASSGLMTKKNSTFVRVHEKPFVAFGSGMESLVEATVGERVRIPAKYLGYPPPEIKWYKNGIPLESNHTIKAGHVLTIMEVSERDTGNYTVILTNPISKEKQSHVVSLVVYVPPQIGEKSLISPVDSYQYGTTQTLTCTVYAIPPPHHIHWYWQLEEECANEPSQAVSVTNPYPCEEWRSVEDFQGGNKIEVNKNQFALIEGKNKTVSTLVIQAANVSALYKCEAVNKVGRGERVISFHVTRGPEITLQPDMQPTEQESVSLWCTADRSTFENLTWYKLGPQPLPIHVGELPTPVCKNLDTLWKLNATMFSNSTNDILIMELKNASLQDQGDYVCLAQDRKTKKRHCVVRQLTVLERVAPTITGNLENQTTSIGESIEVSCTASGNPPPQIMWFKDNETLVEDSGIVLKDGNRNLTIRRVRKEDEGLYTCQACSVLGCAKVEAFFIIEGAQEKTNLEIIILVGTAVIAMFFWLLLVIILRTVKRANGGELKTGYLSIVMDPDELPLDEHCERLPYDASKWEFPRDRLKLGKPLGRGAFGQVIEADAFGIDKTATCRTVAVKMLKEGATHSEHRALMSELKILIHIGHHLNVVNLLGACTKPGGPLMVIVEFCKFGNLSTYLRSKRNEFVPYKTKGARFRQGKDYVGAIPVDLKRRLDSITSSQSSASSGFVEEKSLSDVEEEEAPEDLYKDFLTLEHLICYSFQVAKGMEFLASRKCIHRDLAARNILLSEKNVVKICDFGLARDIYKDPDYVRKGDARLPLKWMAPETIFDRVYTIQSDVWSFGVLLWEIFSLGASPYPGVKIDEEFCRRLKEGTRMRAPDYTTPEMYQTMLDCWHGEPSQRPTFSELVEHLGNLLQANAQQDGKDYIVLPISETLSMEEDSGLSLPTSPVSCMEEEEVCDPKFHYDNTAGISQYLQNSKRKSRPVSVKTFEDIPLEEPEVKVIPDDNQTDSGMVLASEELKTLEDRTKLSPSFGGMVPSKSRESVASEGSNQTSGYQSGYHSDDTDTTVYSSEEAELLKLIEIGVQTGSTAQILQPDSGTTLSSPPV
Method: as §1, §2, §3

[2] = Compound stability in rat liver microsomes; format: in vitro ADME; conditions: for half-life at 5 μM: pH 7.4, compound 5 μM, NADPH, 37° C., read-out: Rat T1/2; for CLint scaled at 5 μM: pH 7.4, in vivo CLint extrapolated
Method: (§4) Human or rat liver microsomes incubations were conducted in duplicate in polypropylene tubes. The typical incubation mixtures consisted of human liver microsomes (0.5 mg protein/mL), compounds of interest (5 μM) and NADPH (1.0 mM) in a total volume of 200 μL potassium phosphate buffer (PBS, 100 mM, pH 7.4). Compounds were dissolved in DMSO and diluted with PBS such that the final concentration of DMSO was 0.05%. The enzymatic reactions were commenced with the addition of protein after a 3-min preincubation and incubated in a water bath open to the air at 37° C. Reactions were terminated at various time points (0, 5, 10, 15, 30, 60 min) by adding equal volume of ice-cold acetonitrile. The samples were stored at −80° C. until LC/MS/MS assays.
(§5) The concentrations of compounds in the incubation mixtures of human liver microsomes were determined by a LC/MS/MS method. The ranges of the linearity in the concentration range were determined for each tested compounds.
(§6) A parallel incubation was performed using denatured microsomes as the negative control, and reactions were terminated at various time points (0, 15, 60 min) after incubation at 37° C.
(§7) Dextromethorphan (70 μM) was selected as the positive control, and reactions were terminated at various time points (0, 5, 10, 15, 30, 60 min) after incubation at 37° C. Both positive and negative control samples were included in each assay to ensure the integrity of the microsomal incubation system.
(§8) The concentrations of compounds in human liver microsome incubations were plotted as a percentage of the relevant zero time point control for each reaction. The in vivo CLint were extrapolated (ref: Naritomi Y, Terashita S, Kimura S, Suzuki A, Kagayama A, Sugiyama Y. Prediction of human hepatic clearance from in vivo animal experiments and in vitro metabolic studies with liver microsomes from animals and humans. Drug Metabolism and Disposition 2001, 29: 1316-1324.)

[3] = Compound stability in human liver microsomes; format: in vitro ADME; conditions: pH 7.4; for half-life at 5 μM: human liver microsomes 0.5 mg protein/mL, compound 5 μM, NADPH, 37° C., read-out: Human T1/2; for CLint scaled at 5 μM: human liver microsomes, in vivo CLint extrapolated
Method: as §4, §5, §6, §7, §8

clearance (CL) after iv dosing ([1]; 2 mg/kg) [L/h/kg]	F ([1]; iv dose 2 mg/kg) [%]	AUC(0-t) ([1]; 2 mg/kg) [ng·h/mL]	half-life ([1]; 2 mg/kg) [min]	Vd ([1]; 2 mg/kg) [L/kg]	Kd (c-Met (h)) [nM]	Kd (KDR (h)) [nM]	half-life at 5 μM [2] [min]	CLint scaled at 5 μM [2] [mL/min/kg]	half-life at 5 μM [3] [min]	CLint scaled at 5 μM [3] [mL/min/kg]	Compound	further results
0.03	59.7	69900	437	0.22	20	25	–	–	–	–	CC(=O)Nc1cc(Oc2ccc(NC(=O)c3c(C)n(C)n(-c4ccccc4)c3=O)nc2)ccn1 [Ex. 17, N-(5-((2-acetamidopyridin-4-yl)oxy)pyridin-2-yl)-1,5-dimethyl-3-oxo-2-phenyl-2,3-dihydro-1H-pyrazole-4-carboxamide]	TGI % (on last day of dosing) (U87MG glioblastoma cells; 6 mg/kg, 12 days): 26%; TGI % (on last day of dosing) (U87MG glioblastoma cells; 20 mg/kg, 12 days): 56%; TGI % (on last day of dosing) (U87MG glioblastoma cells; 60 mg/kg, 12 days): 85%
–	–	–	–	–	2.9	39	–	–	–	–	Cc1c(C(=O)Nc2ccc(Oc3ccnc(NC(=O)N4CCOCC4)c3)cn2)c(=O)n(-c2ccccc2)n1C [Ex. 18, N-(4-((6-(1,5-dimethyl-3-oxo-2-phenyl-2,3-dihydro-1H-pyrazole-4-carboxamido)pyridin-3-yl)oxy)pyridin-2-yl)morpholine-4-carboxamide]	clearance (CL) after iv dosing ([1]; 1 mg/kg): 0.24 L/h/kg; F ([1]; iv dose 1 mg/kg): 77.2%; AUC(0-t) ([1]; 1 mg/kg): 4290 ng·h/mL; half-life ([1]; 1 mg/kg): 73.8 min; Vd ([1]; 1 mg/kg): 0.36 L/kg; TGI % (on last day of dosing) (U87MG glioblastoma cells; 6 mg/kg, 14 days): 28%; TGI % (on last day of dosing) (U87MG glioblastoma cells; 20 mg/kg, 14 days): 49%; TGI % (on last day of dosing) (U87MG glioblastoma cells; 60 mg/kg, 14 days): 57%
1.32	54.4	1490	707	2.64	–	–	96.3	25.8	125	13.9	Cc1c(C(=O)Nc2ccc(Oc3ccnc(N)c3)cc2F)c(=O)n(-c2ccccc2)n1C [Ex. 30, N-(4-((2-aminopyridin-4-yl)oxy)-2-fluorophenyl)-1,5-dimethyl-3-oxo-2-phenyl-2,3-dihydro-1H-pyrazole-4-carboxamide]	–
0.53	70.3	3910	197	0.4	–	–	36.7	67.8	147	11.8	Cc1c(C(=O)Nc2ccc(Oc3ccnc(N)c3Cl)cc2F)c(=O)n(-c2ccccc2)n1C [Ex. 31, N-(4-((2-amino-3-chloropyridin-4-yl)oxy)-2-fluorophenyl)-1,5-dimethyl-3-oxo-2-phenyl-2,3-dihydro-1H-pyrazole-4-carboxamide]	–

From patent US8969388B1, “Substituted pyrazolone compounds and methods of use” (Calitor Sciences, LLC, priority 2012, dated 2015)
